Read-outs that look alike come from different tables or passages of the source. *1 amine or outer side, *2 acyl side, *3 side chain or, on linkers, in order; H or OH if unused. Where a SMILES comes first, the peptide text is derived from it. Bridges are numbered along the chain shown (N, C = ends). [ ]: non-standard residue; d: D form. The star is where a group is joined. X17 = O=C(CC[C@H](NC(=O)CN1CCN2CCN3CCN(CC1)CC(=O)[O][Lu]([O]C(=O)C2)[O]C(=O)C3)C(=O)*)NC[C@H](O)[C@@H](O)[C@H](O)[C@H](O)CO; X5 = NC(=O)[C@H](CCCCNC(=O)CN1CCN(CC(=O)O)CCN(CC(=O)O)CCN(CC(=O)O)CC1)NC(=O)CCC(=O)NCCCOCCOCCOCCCN*; X11 = O=C(CN1CCN2CCN3CCN(CC1)CC(=O)[O][In]([O]C(=O)C2)[O]C(=O)C3)NCCCOCCOCCOCCCN*; NH(1-deoxy-D-glucityl) = OC[C@@H](O)[C@@H](O)[C@H](O)[C@@H](O)CN*; DOTA = O=C(O)CN1CCN(CC(=O)O)CCN(CC(=O)*)CCN(CC(=O)O)CC1; Trp(5-Cl) = N[C@@H](Cc1c[nH]c2ccc(Cl)cc12)C(=O)O; Pyridine(2,6-diCH2) = c1cc(C[*:1])nc(C[*:2])c1; Pro(trans-4-F) = O=C(O)[C@@H]1C[C@@H](F)CN1; Pro(4R-NH2) = N[C@H]1CN[C@H](C(=O)O)C1; mXylylene = c1cc(C[*:1])cc(C[*:2])c1; Glutaryl = O=C(CCCC(=O)[*:2])[*:1]; Hydrocinnamoyl = O=C(CCc1ccccc1)*; X6 = c1cc(CSCCN[*:2])nc(C[*:1])c1; X7 = c1cc(CSCCN[*:2])cc(C[*:1])c1; Hyp = O=C(O)[C@@H]1C[C@@H](O)CN1; X1 = O=C(CN1CCC(N[*:1])CC1)[*:2]; Suc = O=C(CCC(=O)[*:2])[*:1]; Api = NC1(C(=O)O)CCNCC1; Thp = NC1(C(=O)O)CCOCC1; Aib = CC(C)(N)C(=O)O; Sar = CNCC(=O)O
Biological target: T1, GIPR (CHO-K1-hGIPR cells) (Homo sapiens, UniProt P48546)
T1 construct: host or cells: CHO-K1
T1 sequence (P48546 22-466): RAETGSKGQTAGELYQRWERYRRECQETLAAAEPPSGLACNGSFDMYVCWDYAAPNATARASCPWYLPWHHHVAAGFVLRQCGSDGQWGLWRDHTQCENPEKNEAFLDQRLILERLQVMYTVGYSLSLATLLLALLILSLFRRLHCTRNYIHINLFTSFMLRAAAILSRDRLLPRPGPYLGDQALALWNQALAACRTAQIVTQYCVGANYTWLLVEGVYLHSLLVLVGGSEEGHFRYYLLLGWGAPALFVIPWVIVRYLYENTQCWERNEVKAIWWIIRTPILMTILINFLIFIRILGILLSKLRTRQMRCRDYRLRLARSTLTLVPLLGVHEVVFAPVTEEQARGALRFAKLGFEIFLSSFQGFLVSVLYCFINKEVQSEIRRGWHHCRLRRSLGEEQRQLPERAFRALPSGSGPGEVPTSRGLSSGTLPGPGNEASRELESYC
Test: FACS binding assay
Method in brief: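 Peptide binding read by flow cytometry as APC-channel median fluorescence, fitted with a four-parameter logistic to yield EC50 or IC50. Cells were hGIPR-transfected CHO-K1 in PBS with 1% FCS, detected with 1 μg/mL APC-streptavidin, 30 min on ice.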

[1] = competition with 20 nM GIP-057, 4° C., 1 hour, read-out: pIC50 Category (converted)

| SMILES | IC50 [1] [nM] | further results |
| --- | --- | --- |
| CC[C@H](C)[C@@H]1NC(=O)[C@H](CC(C)C)NC(=O)C2(CCN(C(=O)[C@H](CCC(=O)NC[C@H](O)[C@@H](O)[C@H](O)[C@H](O)CO)NC(=O)CN3CCN4CCN5CCN(CC3)CC(=O)[O][Lu]([O]C(=O)C4)[O]C(=O)C5)CC2)NC(=O)[C@@H](NC(=O)[C@@H](CC(C)C)NC(=O)[C@H](CCC(=O)O)NC(=O)[C@@H]2C[C@@H](N)CN2C(=O)[C@H](Cc2c[nH]c3ccc(Cl)cc23)NC(=O)[C@H](Cc2c[nH]c3ccccc23)NC(=O)[C@H](CC(=O)O)NC(=O)CN2CCC(NC(=O)CCCC(=O)NC[C@H](O)[C@@H](O)[C@H](O)[C@H](O)CO)CC2)CSCc2cccc(n2)CSC[C@@H](C(=O)NC2CCN(CC(=O)N[C@H](CCC(=O)NC[C@H](O)[C@@H](O)[C@H](O)[C@H](O)CO)C(N)=O)CC2)NC1=O [GIP-061, AGLU-Glutar-APAc-Asp-Trp-5Clw-Tap-Glu-leu-[Cys(2Lut)-Apc(LuDOTA-glu(AGLU))-Leu-Ile-Cys]-APAc-glu(AGLU)-NH2] ({NH(1-deoxy-D-glucityl)-Glutaryl}-[X1]DW[Trp(5-Cl)][Pro(4R-NH2)]E[dL]C[Api](X17)LIC[X1][dE](NH(1-deoxy-D-glucityl))-NH2; linker 8-12 via Pyridine(2,6-diCH2)) | – | IC50 (pIC50 Category, competition with 20 nM GIP-057, 4° C., 1 hour): < 10 nM |
| CC[C@H](C)[C@@H]1NC(=O)[C@H](CC(C)C)NC(=O)C(C)(C)NC(=O)[C@@H](NC(=O)[C@@H](CC(C)C)NC(=O)[C@H](CCC(=O)O)NC(=O)CN(C)C(=O)[C@H](Cc2c[nH]c3ccc(Cl)cc23)NC(=O)[C@H](Cc2c[nH]c3ccccc23)NC(=O)[C@H](CC(=O)O)NC(=O)CCC(=O)NCCCOCCOCCOCCCNC(=O)CN2CCN3CCN4CCN(CC2)CC(=O)[O][In]([O]C(=O)C3)[O]C(=O)C4)CSCc2cccc(c2)CSCCNC1=O [GIP-152, InDOTA-Ttds-Asp-Trp-5Clw-Nmg-Glu-leu-[Cys(3MeBn)-Aib-Leu-Ile-AET]] ({X11-Suc}-DW[Trp(5-Cl)][Sar]E[dL]C[Aib]LI; linker 7-C via X7) | < 10 | – |
| CC[C@H](C)[C@@H]1NC(=O)[C@H](CC(C)C)NC(=O)C2(CCOCC2)NC(=O)[C@@H](NC(=O)[C@@H](CC(C)C)NC(=O)[C@H](CCC(=O)O)NC(=O)[C@@H]2C[C@@H](O)CN2C(=O)[C@H](Cc2c[nH]c3ccc(Cl)cc23)NC(=O)CNC(=O)[C@H](CC(=O)O)NC(=O)CN2CCC(NC(=O)CN3CCN(CC(=O)O)CCN(CC(=O)O)CCN(CC(=O)O)CC3)CC2)CSCc2cccc(n2)CSCCNC1=O [GIP-284, DOTA-APAc-Asp-Gly-5Clw-Hyp-Glu-leu-[Cys(2Lut)-Thp-Leu-Ile-AET]] ({DOTA}-[X1]DG[Trp(5-Cl)][Hyp]E[dL]C[Thp]LI; linker 8-C via X6) | – | IC50 (competition with 20 nM GIP-057, 4° C. for 1 hour, read-out: pIC50 Category (converted)): 100 to 794 nM |

More lines, main results first:

| IC50 [1] [nM] | SMILES | further results |
| --- | --- | --- |
| 10 to 79.4 | CC[C@H](C)[C@@H]1NC(=O)[C@H](CC(C)C)NC(=O)C(C)(C)NC(=O)[C@@H](NC(=O)[C@@H](CC(C)C)NC(=O)[C@H](CCC(=O)O)NC(=O)[C@@H]2CCCN2C(=O)[C@H](Cc2c[nH]c3ccccc23)NC(=O)[C@H](Cc2c[nH]c3ccccc23)NC(=O)[C@H](CC(=O)O)NC(=O)CCc2ccccc2)CSCc2cccc(c2)CSC[C@@H](C(=O)NCCCOCCOCCOCCCNC(=O)CCC(=O)N[C@@H](CCCCNC(=O)CN2CCN(CC(=O)O)CCN(CC(=O)O)CCN(CC(=O)O)CC2)C(N)=O)NC1=O [GIP-135, Php-Asp-Trp-Trp-Pro-Glu-leu-[Cys(3MeBn)-Aib-Leu-Ile-Cys]-Ttds-Lys(DOTA)-NH2] (Hydrocinnamoyl-DWWPE[dL]C[Aib]LIC-X5; linker 7-11 via mXylylene) | – |
| < 10 | CC[C@H](C)[C@@H]1NC(=O)[C@H](CC(C)C)NC(=O)C2(CCOCC2)NC(=O)[C@@H](NC(=O)[C@@H](CC(C)C)NC(=O)[C@H](CCC(=O)O)NC(=O)[C@@H]2C[C@@H](F)CN2C(=O)[C@H](Cc2c[nH]c3ccc(Cl)cc23)NC(=O)[C@H](Cc2c[nH]c3ccccc23)NC(=O)[C@H](CC(=O)O)NC(C)=O)CSCc2cccc(n2)CSC[C@@H](C(N)=O)NC1=O [GIP-187, Ac-Asp-Trp-5Clw-4Tfp-Glu-leu-[Cys(2Lut)-Thp-Leu-Ile-Cys]-NH2] (Ac-DW[Trp(5-Cl)][Pro(trans-4-F)]E[dL]C[Thp]LIC-NH2; linker 7-11 via Pyridine(2,6-diCH2)) | – |

— patent US20250296971A1, “GASTRIC INHIBITORY PEPTIDE RECEPTOR LIGANDS” (priority 2021, published 2025)
